According to patent US6492492B1, “Circularly permuted biotin binding proteins” (University of Washington, priority 1998, dated 2002):
Where “and” joins values, the source holds several entries; their conditions need not be identical. Equal values may be shown once. Read-outs that look alike come from different tables or passages of the source.

Experiments:
[1] = Isothermal titration calorimetry of biotin binding; details: for ΔCp: Table 1a, CP51/46 in PB; for ΔCp observed: change in heat capacity of biotin association, linear fit of ΔH° versus temperature
Protocol: Isothermal titration calorimetry (ITC) experiments on wild-type streptavidin were performed on a MicroCal Omega instrument. ITC experiments on CP51/46 were done using a Calorimetry Science Corporation 4200 Calorimeter (Provo, Utah). CP51/46 solutions of 30-40 μM concentration were titrated by the addition of 20×5μL aliquots of 750 μM biotin dissolved in the same buffer as the protein. All ITC experiments were done in either phosphate (50 mM sodium phosphate, 100 mM NaCl, pH 7.75) or Tris (50 mM Tris HCl, 100 mM NaCl, pH 7.75) buffers. Biotin concentrations were determined gravimetrically. Data were analyzed using the proprietary software supplied by Calorimetry Science Corporation with the instrument. Heats of dilution for each injection were subtracted from the reaction heats before data analysis. Nonlinear fitting of the data allowed the number of binding sites (n), association constant (Ka), and binding enthalpy (ΔH°) to be determined assuming noncooperative binding and one site per subunit.

[2] = wild-type, cited from earlier work; for Ka: biotin association, estimated (Green 1990); for ΔH°: 25° C. (Chilkoti 1995)
[3] = Tris buffer, per mol of subunits
[4] = phosphate buffer (PB), 25° C., per mol of subunits

wild-type: Wild-type core streptavidin (SEQ ID NO:1), comparator for biotin binding [reference compound]
ΔCp ([1]; per mol of subunits): -345 ± 12 cal/mol·°C
ΔCp observed [1]: −345 cal/mol° C.
TΔS° ([1]; wild-type, 25° C., from estimated Ka and Gibb's free energy): -6.6 ± 0.4 kcal/mol
TΔS° ([1]; wild-type, 25° C., from estimated Ka and Gibb's free energy, listed as wild-type streptavidin): -6.6 kcal/mol
ΔG° ([1]; wild-type, from estimated Ka, per mol of subunits): -18 kcal/mol
Ka [2]: 2.5e+13 M⁻¹
Ka ([2]; listed as Wild-type streptavidin): ~2.5e+13 M⁻¹
Ka ([2]; listed as streptavidin): approximately 2.5×10^13 M^−1
ΔH° [2]: -24.9 ± 0.4 kcal/mol
ΔH° ([2]; listed as wild type streptavidin): -24.9 kcal/mol

B1: CP51/46: Circularly permuted core streptavidin; termini 13 and 139 joined by GGGS linker, loop residues 47-50 removed, new termini Glu51 and Ala46 (SEQ ID NO:4) (protein)
chain: MESRYVLTGRYDSAPATDGSGTALGWTVAWKNNYRNAHSATTWSGQYVGGAEARINTQWLLTSGTTEANAWKSTLVEHDTFTKVKPSAASGGGSAEAGITGTWYNQLGSTFIVTAGADGALTGTYESA
ΔCp ([1]; per mol of subunits): -95 ± 29 cal/mol·°C
TΔS° [1, 3]: -3.3 ± 0.7 kcal/mol
ΔG° [1, 3]: -10.1 kcal/mol
ΔH° [1, 3]: -13.4 ± 0.7 kcal/mol
Ka ([1]; biotin association, Tris buffer pH 7.75, per mol of subunits): (2.47 ± 1.87) × 10^7 M^−1
ΔCp observed [1]: −95 cal/mol° C.
TΔS° [1, 4]: −3.8 (±0.8) kcal/mol and −3.8 ± 0.8 kcal/mol
ΔG° [1, 4]: -10.0 kcal/mol
ΔH° [1, 4]: −13.8 (±0.8) kcal/mol and −13.8 ± 0.8 kcal/mol
